39 compounds from ChEMBL document CHEMBL5053535, “Design, synthesis and biological evaluation of novel aminopyrazole- and 7-azaindole-based Nek1 inhibitors and their effects on zebrafish kidney development” (Bioorg Med Chem Lett, 2021) can be followed below.

Each structure is given as a SMILES string. pIC50: −log10 of the molar value. Values after ≈ are worked out from the molar mass of the structure shown.

For data set [1], the target named is T1, Serine/threonine-protein kinase Nek1 (Homo sapiens) (UniProt Q96PY6).
T1 sequence (whole entry): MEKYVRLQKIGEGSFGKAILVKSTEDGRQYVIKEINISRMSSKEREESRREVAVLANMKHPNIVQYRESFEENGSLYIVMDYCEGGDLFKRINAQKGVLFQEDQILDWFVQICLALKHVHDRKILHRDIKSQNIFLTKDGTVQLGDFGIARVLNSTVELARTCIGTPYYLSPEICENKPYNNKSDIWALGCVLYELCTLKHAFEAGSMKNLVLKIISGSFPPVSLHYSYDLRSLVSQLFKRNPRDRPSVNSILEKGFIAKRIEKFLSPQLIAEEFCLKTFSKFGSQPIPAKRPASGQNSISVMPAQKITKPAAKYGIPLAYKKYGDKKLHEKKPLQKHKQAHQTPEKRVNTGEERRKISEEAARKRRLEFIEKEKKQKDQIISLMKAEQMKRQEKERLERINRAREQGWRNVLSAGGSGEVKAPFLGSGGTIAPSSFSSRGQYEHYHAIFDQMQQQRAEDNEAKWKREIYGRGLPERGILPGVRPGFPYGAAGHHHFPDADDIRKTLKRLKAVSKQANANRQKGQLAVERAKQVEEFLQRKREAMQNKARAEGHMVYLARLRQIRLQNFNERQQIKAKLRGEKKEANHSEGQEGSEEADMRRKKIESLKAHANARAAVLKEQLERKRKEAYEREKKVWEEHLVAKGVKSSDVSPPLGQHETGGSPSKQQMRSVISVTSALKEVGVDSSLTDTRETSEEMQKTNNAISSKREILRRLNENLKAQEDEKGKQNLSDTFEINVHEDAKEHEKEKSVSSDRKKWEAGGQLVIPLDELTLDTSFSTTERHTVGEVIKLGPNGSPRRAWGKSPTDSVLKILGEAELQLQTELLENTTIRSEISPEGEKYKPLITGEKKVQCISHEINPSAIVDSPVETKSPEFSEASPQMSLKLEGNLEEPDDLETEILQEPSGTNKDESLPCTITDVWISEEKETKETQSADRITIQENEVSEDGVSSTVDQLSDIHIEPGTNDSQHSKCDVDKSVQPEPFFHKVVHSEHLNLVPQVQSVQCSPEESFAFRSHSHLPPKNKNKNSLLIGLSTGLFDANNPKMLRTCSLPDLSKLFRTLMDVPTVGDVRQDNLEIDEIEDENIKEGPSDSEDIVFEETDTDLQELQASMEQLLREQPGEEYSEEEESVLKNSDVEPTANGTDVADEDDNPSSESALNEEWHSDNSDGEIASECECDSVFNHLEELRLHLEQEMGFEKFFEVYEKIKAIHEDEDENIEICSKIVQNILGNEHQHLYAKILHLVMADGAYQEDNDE
Briefly: Inhibition of human NEK1 using myelin basic protein as substrate assessed as residual activity at 10 uM in presence of [gamma-33P]-ATP by radiometric hotspot kinase assay relative to control.

Data set [2] concerns the target T1, Serine/threonine-protein kinase Nek1 (Homo sapiens). Put plainly: Inhibition of human NEK1 using myelin basic protein as substrate assessed as residual activity at 1 uM in presence of [gamma-33P]-ATP by radiometric hotspot kinase assay relative to control.
Data set [3] addresses T2, Serine/threonine-protein kinase Nek1 (Homo sapiens, UniProt Q96PY6).
T2 sequence (Q96PY6 whole entry): T1 sequence (whole entry)
Briefly: Inhibition of human NEK1 using myelin basic protein as substrate assessed as residual activity in presence of [gamma-33P]-ATP by radiometric hotspot kinase assay relative to control.

Data set [4] deals with Cyclin-dependent kinase 2/cyclin E1 (Homo sapiens) (UniProt P24864+P24941). Briefly: Inhibition of human recombinant full length C-terminal His6 tagged CDK2/ N-terminal GST-tagged Cyclin E expressed in baculovirus infected Sf21 insect cells using histone H1 as substrate assessed as residual activity at 1 uM pretreated for 20 mins followed by [33P]-ATP addition measured after 120 mins by radiometric hotspot kinase assay relative to control. Conditions: time 140.0 min.

Data set [5] concerns the target T3, Serine/threonine-protein kinase Chk1 (Homo sapiens) (UniProt O14757).
T3 sequence (whole entry): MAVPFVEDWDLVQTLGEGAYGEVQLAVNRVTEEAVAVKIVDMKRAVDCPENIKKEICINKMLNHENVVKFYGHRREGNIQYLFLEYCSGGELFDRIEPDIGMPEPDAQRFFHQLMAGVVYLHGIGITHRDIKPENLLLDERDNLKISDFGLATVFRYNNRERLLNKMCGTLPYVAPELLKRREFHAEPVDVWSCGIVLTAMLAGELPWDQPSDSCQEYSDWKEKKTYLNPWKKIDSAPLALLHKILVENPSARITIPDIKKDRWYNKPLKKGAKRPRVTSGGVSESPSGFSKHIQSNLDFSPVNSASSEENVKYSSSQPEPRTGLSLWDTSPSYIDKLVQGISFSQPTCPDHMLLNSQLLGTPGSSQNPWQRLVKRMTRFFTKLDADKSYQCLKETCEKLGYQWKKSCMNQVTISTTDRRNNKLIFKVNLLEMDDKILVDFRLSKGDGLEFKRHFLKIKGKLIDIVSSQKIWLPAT
Put plainly: Inhibition of human recombinant full length N-terminal His tagged CHK1 expressed in baculovirus infected Sf21 insect cells using CHKtide as substrate assessed as residual activity at 1 uM pretreated for 20 mins followed by [33P]-ATP addition measured after 120 mins by radiometric hotspot kinase assay relative to control. The conditions noted are these: time 140.0 min.

Data set [6] concerns the target Vascular endothelial growth factor receptor 2 (Homo sapiens) (UniProt P35968). Put plainly: Inhibition of human recombinant C-terminal His6 tagged VEGFR2 (789 to 1356 residues) expressed in baculovirus infected insect cells assessed as residual activity at 1 uM pretreated for 20 mins followed by [33P]-ATP addition measured after 120 mins by radiometric hotspot kinase assay relative to control. The conditions noted are these: time 140.0 min.

For data set [7], the target named is T4, Serine/threonine-protein kinase Nek5 (Homo sapiens) (UniProt Q6P3R8).
T4 sequence (whole entry): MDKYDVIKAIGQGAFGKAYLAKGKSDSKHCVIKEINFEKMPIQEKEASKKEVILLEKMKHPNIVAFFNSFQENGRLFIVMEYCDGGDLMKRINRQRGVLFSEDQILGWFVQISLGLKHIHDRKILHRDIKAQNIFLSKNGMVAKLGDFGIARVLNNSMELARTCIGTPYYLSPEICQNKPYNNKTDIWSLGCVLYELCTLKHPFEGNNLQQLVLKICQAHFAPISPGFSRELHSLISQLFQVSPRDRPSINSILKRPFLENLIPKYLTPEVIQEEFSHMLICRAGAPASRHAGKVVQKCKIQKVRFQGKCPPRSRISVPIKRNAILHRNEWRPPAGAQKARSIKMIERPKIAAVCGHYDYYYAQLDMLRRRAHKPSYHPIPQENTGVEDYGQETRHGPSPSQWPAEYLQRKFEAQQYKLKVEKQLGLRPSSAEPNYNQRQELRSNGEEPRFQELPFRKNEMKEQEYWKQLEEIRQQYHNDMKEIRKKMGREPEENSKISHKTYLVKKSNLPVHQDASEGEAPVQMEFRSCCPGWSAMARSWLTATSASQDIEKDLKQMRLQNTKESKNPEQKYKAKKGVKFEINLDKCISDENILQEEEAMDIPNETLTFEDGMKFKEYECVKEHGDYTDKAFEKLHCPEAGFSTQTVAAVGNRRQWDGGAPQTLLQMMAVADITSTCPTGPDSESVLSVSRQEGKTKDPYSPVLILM
Briefly: Inhibition of human recombinant NEK5 assessed as residual activity at 1 uM pretreated for 20 mins followed by [33P]-ATP addition measured after 120 mins by radiometric hotspot kinase assay relative to control. Conditions: time 140.0 min.

For data set [8], the target named is Wee1-like protein kinase (Homo sapiens) (UniProt P30291). Put plainly: Inhibition of human recombinant full length WEE1 expressed in insect cells using MBP as substrate assessed as residual activity at 1 uM pretreated for 20 mins followed by [33P]-ATP addition measured after 120 mins by radiometric hotspot kinase assay relative to control. Conditions: time 140.0 min.

Data set [9] can be described thus: Solubility of the compound in E3 medium with 0.2% DMSO by DAD-HPLC based shake flask method. The class given is physicochemical.
Data set [10] in a line: Solubility of the compound in DMEM with 1% DMSO by DAD-HPLC based shake flask method. The class given is physicochemical.
Data set [11] can be described thus: Stability of the compound in DMEM measured after 48 hrs by DAD-HPLC method. The class given is physicochemical. Conditions: read-out: Stability.

Chain of Vascular endothelial growth factor receptor 2 (Homo sapiens) (P35968 whole entry, the tested form may be a part): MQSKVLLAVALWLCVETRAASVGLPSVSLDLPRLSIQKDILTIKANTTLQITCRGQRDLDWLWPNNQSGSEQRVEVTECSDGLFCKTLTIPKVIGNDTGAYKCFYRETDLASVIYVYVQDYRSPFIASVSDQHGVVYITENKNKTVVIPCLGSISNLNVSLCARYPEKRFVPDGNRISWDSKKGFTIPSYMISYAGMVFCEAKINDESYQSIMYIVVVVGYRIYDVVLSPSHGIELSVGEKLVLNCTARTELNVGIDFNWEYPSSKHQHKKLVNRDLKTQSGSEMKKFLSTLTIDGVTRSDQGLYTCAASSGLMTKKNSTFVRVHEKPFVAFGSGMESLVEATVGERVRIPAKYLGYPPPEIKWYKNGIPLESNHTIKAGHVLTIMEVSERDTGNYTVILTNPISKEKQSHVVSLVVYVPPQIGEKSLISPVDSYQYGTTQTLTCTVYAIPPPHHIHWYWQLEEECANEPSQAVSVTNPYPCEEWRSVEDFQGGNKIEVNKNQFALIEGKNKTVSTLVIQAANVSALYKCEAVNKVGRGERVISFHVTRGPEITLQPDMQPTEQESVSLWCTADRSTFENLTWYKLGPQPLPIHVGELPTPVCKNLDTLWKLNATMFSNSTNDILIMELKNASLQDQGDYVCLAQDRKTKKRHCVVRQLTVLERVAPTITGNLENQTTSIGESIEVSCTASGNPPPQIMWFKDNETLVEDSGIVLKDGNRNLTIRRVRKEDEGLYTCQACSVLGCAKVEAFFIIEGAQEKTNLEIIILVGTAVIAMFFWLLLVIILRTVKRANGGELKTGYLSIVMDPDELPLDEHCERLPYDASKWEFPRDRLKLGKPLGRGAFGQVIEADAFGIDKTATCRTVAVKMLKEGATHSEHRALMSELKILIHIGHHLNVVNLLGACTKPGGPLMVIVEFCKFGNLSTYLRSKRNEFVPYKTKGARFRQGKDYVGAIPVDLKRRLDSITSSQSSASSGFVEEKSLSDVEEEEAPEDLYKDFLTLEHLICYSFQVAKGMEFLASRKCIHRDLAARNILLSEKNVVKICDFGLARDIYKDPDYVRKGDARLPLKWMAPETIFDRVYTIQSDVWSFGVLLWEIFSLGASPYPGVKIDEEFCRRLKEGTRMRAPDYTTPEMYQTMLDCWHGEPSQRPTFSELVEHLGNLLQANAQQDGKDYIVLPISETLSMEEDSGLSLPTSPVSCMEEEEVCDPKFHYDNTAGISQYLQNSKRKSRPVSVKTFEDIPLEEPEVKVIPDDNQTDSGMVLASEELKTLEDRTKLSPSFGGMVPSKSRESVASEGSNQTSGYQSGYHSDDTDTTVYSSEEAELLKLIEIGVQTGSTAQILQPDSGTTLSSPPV
Chain of Wee1-like protein kinase (Homo sapiens) (P30291 whole entry, looked up): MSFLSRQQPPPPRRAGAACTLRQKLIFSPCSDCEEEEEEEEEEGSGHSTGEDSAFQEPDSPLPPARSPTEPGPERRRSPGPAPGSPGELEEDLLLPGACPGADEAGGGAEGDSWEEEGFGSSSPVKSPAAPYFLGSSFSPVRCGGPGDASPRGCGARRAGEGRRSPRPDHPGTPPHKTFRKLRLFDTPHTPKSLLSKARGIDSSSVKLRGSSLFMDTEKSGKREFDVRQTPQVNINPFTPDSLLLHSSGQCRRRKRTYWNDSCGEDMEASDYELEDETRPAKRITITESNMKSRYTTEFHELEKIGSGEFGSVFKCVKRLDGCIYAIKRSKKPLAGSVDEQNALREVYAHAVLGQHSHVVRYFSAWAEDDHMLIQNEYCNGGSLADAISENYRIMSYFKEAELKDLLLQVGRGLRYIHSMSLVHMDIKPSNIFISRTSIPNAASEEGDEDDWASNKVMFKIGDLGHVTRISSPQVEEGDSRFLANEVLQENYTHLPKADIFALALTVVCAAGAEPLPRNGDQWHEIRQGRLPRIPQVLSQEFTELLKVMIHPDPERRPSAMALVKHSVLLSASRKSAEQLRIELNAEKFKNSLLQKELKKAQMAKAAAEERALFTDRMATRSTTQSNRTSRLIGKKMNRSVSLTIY

With `N#Cc1cccc(-c2cnc3[nH]ccc3c2)c1`, the Activity in data set [1] is 64.7%.
With `Cc1cc(Nc2ccnc(N(C)c3ccccc3)n2)n[nH]1`, the Activity in [2] is 89.8%.
Consider `COC(=O)c1cccc(-c2cnc3[nH]cc(-c4ccccc4C)c3c2)c1`, for which the Activity in [2] was found to be 61%.
`Cc1cc(Nc2ccnc(NCc3cccnc3)n2)n[nH]1`: the Activity in data set [2] is 101%.
Same read-out and setting: next, `Cc1cc(Nc2ccnc(N(C)Cc3ccccc3)n2)n[nH]1`: 91.8%; `COC(=O)c1cccc(-c2cnc3[nH]cc(-c4ccccc4OC)c3c2)c1`: 60.9%.
For `N#Cc1cccc(-c2cnc3[nH]cc([N+](=O)[O-])c3c2)c1`, in data set [2], the Activity is over 100%.
The same measure, in the same setting: under `Cc1cc(Nc2ccnc(N3CCN(C)CC3)n2)n[nH]1` stands 98.4%.
In the case of `N#Cc1cccc(-c2cnc3[nH]cc(-c4ccncc4)c3c2)c1`, the Activity in data set [2] was 74.3%.
As to `Cc1cc(Nc2ccnc(Nc3ccccc3C)n2)n[nH]1`, the Activity in data set [2] came out at 87.5%.
On to `Cc1cc(Nc2ccnc(NC3CC3)n2)n[nH]1`, for which, in [2], the Activity stood at 95.1%.
Turning to `Cc1cc(Nc2ccnc(Nc3ccccc3)n2)n[nH]1`, in data set [2], the Activity worked out at 74.8%.
Still for that read-out and setting: next, `Cc1cc(Nc2ccnc(Nc3cccc4ccccc34)n2)n[nH]1`: 90.1%; `COc1cccc(-c2c[nH]c3ncc(-c4cccc(C#N)c4)cc23)c1`: 41.1%.
In the case of `O=[N+]([O-])c1cccc(-c2cnc3[nH]ccc3c2)c1`, the Activity in data set [1] was determined as 78.5%.
Regarding `N#Cc1cccc(-c2cnc3[nH]cc(-c4cccnc4)c3c2)c1`, the Activity in data set [2] is 17.4%; in [4], 2.9%; in [5], 69.6%; in data set [6] it was 35%; in data set [7] it was 27.9%; in data set [8], 83.4%. Further, the pIC50 in data set [3] is 6.89. In addition, the solubility in data set [9] came to 7.2 µM (≈ 2.13 µg/mL); in data set [10], 5.7 µM (≈ 1.69 µg/mL). Also, the remaining at 48 h in data set [11] stood at 98%.
Turning to `c1ccc(Nc2nccc(Nc3cc(C4CC4)[nH]n3)n2)cc1`, in data set [3], the pIC50 is 6.07.
Take `Cc1ccc(CNc2nccc(Nc3cc(C)[nH]n3)n2)cc1`: the Activity in data set [2] came out at 86.8%.
With `O=C(O)c1cccc(-c2cnc3[nH]ccc3c2)c1`, the Activity in data set [1] came out at 72.8%.
On to `COC(=O)c1cccc(-c2cnc3[nH]ccc3c2)c1`, for which the Activity in data set [1] worked out at 44.7%.
`N#Cc1cccc(-c2cnc3[nH]cc(-c4ccccc4)c3c2)c1`: the Activity in [2] came to 52.3%.
With `CCCCNc1nccc(Nc2cc(C)[nH]n2)n1`, in data set [2], the Activity was 86.9%.
As to `COC(=O)c1cccc(-c2cnc3[nH]cc(-c4cccc(C)c4)c3c2)c1`, the Activity in data set [2] was 46.4%.
Same read-out and setting: under `O=[N+]([O-])c1cccc(Nc2nccc(Nc3cc(C4CC4)[nH]n3)n2)c1` stands 28.5%; under `N#Cc1cccc(-c2cnc3[nH]cc(Cl)c3c2)c1`, over 100%; under `COC(=O)c1cccc(-c2cnc3[nH]cc(-c4cccc([N+](=O)[O-])c4)c3c2)c1`, 28.5%.
On to `c1ccc(-c2cnc3[nH]cc(-c4ccccc4)c3c2)cc1`, for which the Activity in [2] was 29.3%.
In the case of `Cc1ccc(-c2c[nH]c3ncc(-c4cccc(C#N)c4)cc23)cc1`, in [2], the Activity came out at 72.8%.
For `c1ccc(-c2cnc3[nH]ccc3c2)cc1`, in data set [1], the Activity is 62.9%.
As to `COC(=O)c1cccc(-c2cnc3[nH]cc(-c4ccc(C)cc4)c3c2)c1`, the Activity in data set [2] was 47.9%.
For the compound `Cc1cc(Nc2ccnc(Nc3cccc([N+](=O)[O-])c3)n2)n[nH]1`, the Activity in data set [2] came to 36.6%.
For the compound `CNC(=O)c1cccc(-c2cnc3[nH]ccc3c2)c1`, the Activity in data set [1] was 67.2%.
On to `N#Cc1cccc(-c2cnc3[nH]cc(Br)c3c2)c1`, for which the Activity in [2] is over 100%.
Same read-out and setting: next, `Cc1cc(Nc2ccnc(NCc3ccccn3)n2)n[nH]1`: 90.8%; `Cc1cc(Nc2ccnc(NCc3ccccc3)n2)n[nH]1`: 95.4%.
On to `Cc1cc(Nc2ccnc(NCc3ccc4c(c3)OCO4)n2)n[nH]1`, for which the Activity in data set [2] amounted to 97.2%.
For `c1ccc(Nc2nccc(Nc3cc(-c4ccccc4)[nH]n3)n2)cc1`, the Activity in data set [2] came out at 65.9%.
On to `COCCNc1nccc(Nc2cc(C)[nH]n2)n1`, for which, in [2], the Activity was determined as 99.8%.
As to `COC(=O)c1cccc(-c2cnc3[nH]cc(-c4ccccc4)c3c2)c1`, the Activity in data set [2] is 7.31%; in data set [4], 23.5%; in data set [5], over 100%; in data set [6], 97.2%; in [7] it was 78.7%; in data set [8] it was 82.9%. Besides, the pIC50 in [3] was 6.91. Also, the results for the solubility in [9] and in data set [10] were 2.5 µM (≈ 0.821 µg/mL) and 4.4 µM (≈ 1.44 µg/mL), respectively. The remaining at 48 h in data set [11] stood at 86%.

One may read the pIC50 as the negative decadic logarithm of the IC50, by convention in mol/L. For orientation: solubility means the dissolved amount per volume that the medium holds. The low end stands for little dissolved substance, the high end for much dissolved substance.
